According to patent US20250051323A1 (RICHTER GEDEON NYRT., priority 2021, published 2025):
Counter-ions that a name gives are not always drawn. Like-named read-outs stand apart in the source and are kept apart here.

Columns and labels:
[1] = target: T1, human recombinant GABAA α5β3γ2 receptor (Homo sapiens (Human), UniProt P18507+P31644); experiment: Binding assay, [3H]Ro151788 displacement on HEK cell membranes; conditions: [3H]Ro151788 0.5 nM, 60 minutes at 4° C., Cheng-Prusoff; read-out: hGABAA α5 Ki
T1 sequence (P31644 32-462): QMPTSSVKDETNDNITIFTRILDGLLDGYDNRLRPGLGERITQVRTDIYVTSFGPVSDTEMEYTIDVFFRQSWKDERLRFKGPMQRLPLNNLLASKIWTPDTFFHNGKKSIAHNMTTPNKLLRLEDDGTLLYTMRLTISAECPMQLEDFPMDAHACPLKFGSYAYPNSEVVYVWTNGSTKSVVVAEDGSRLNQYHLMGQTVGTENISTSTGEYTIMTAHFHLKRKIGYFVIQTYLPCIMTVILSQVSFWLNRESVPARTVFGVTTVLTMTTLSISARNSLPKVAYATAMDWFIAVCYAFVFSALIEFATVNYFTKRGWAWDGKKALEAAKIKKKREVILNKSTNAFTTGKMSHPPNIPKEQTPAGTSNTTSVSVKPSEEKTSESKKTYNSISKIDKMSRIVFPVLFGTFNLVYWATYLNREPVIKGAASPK
T1 sequence (P28472 26-473 partner): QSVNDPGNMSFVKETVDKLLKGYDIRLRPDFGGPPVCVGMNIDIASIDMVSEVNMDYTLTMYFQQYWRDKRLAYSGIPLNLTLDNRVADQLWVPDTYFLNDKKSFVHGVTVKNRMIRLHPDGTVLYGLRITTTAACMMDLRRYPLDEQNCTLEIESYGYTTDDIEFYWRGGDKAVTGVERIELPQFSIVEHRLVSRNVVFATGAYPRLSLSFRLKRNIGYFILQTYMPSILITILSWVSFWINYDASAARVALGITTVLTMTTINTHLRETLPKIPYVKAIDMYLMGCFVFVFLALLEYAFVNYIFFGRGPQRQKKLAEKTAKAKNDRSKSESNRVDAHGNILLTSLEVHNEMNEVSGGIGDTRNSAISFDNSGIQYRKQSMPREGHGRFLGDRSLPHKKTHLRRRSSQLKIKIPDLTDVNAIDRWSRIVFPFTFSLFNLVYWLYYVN
T1 sequence (P18507 40-475): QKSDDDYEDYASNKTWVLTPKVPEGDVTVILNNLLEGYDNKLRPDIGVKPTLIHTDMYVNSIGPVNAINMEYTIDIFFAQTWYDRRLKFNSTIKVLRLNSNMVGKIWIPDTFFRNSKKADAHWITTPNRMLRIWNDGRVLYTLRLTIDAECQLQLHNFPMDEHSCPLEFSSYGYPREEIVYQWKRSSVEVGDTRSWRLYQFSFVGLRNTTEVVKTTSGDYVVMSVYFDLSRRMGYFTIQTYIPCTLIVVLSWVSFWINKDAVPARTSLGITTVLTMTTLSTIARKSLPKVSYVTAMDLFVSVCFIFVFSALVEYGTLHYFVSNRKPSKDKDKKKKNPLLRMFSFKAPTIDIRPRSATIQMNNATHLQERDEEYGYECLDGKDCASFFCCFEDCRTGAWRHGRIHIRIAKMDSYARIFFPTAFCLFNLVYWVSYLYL
Protocol: The GABAA α5β3γ2 protein used for the receptor binding assay was derived from membranes produced from HEK cells (Millipore CYL3073) expressing the human recombinant GABAA α5β3γ2 receptor. Cells were stored and cultured in-house according to the instructions provided by the vendor (Millipore). Cell pellet was homogenized in 10 times modified Krebs Henseleit buffer (membrane preparation buffer): 20 mM Tris, 120 mM NaCl, 100 mM KCl, 25 mM CaCl2 and 25 mM MgCl2 pH=7.4 at 4° C. using Ultra Turrax (Janke&Kunkel) maximal speed for 15 seconds. The homogenate was centrifuged at 40,000 g for 30 minutes at 4° C. Supernatant was discarded and the resulting pellet was washed in membrane preparation buffer. Pellet was resuspended in membrane preparation buffer and aliquots of 1.4 mL ampules were stored at −70° C. until use.
Receptor binding assays were performed in 96-well format in deep-well plates. For each 96-well plate one ampule of membrane homogenate was thawed and diluted in binding buffer (50 mM Tris pH=7.4, 100 mM KCl) and 200 μL was dispensed into each well. Radioligand [^3H]Ro151788 (Perkin Elmer: NET757250UC) was prepared in binding buffer and added to each well in 50 μL volume to give final concentration of 0.5 nM. Test compounds in suitable concentration(s) were added in additional 50 μL. The final assay volume was 300 μL. Incubation was carried out for 60 minutes at 4° C. For non-specific binding 10 μM unlabeled diazepam was used. […] The plate was dried at 40° C. for an hour and 40 μL Microscint (Perkin Elmer) scintillation cocktail was added to each well. The plate was read in Microbeta (Perkin Elmer).
The specific radioligand binding (SB) was defined as the difference between total binding (Tot) and the non-specific binding (NSB). Results are expressed as a percent inhibition of specific binding obtained in the presence of compound of interest.
For IC50 and Ki determination a minimum of six drug concentrations in triplicate were used. […] Ki values (i.e., inhibition constants) were calculated using the Cheng-Prusoff equation Ki=IC5O/[1+(L/KD)], where [L] is the radioligand concentration and KD the affinity of the labelled ligand for receptor. KD was determined from the Saturation analyses.

[2] = target: T1, human recombinant GABAA α5β3γ2 receptor; experiment: Functional assay, QPatch automated whole-cell patch clamp, modulation of GABA-evoked current; format: cell-based; conditions: read-out: hGABAA α5 efficacy (percentage modulation of GABA-evoked peak current)
Protocol: Human HEK293 cell lines expressing GABAAα5β3γ2 receptors were used in functional assays using the QPatch automated patch clamp system.
HEK293 cell lines stably expressing human recombinant GABAA α5β3γ2 receptor subunits (Millipore, CYL3053) were cultured in DMEM supplemented with 10% FBS (Gibco), passed two times per week and plated on Petri dishes previously coated with poly-d-lysine.
Automated whole-cell patch clamp recordings were made from cells 2-4 days after plating.
Inward currents were evoked at a holding potential of −80 mV by 3-s-long applications of the control agonist GABA at 1 μM at 2-4-min intervals first in concentration-matched DMSO (0.1 or 0.3%) control solution for five times, then in the presence of the test compound for four times, finally in control solution again for three times (wash-out). At the end of the experiment 100 μM GABA was applied to saturate the GABA-response and to assess the efficacy of the control GABA application. Current signals were low-pass filtered at 100 Hz and recorded at a sampling rate of 1 kHz.
The percentage modulation was calculated from the comparison of GABA-evoked peak current amplitudes in the presence and absence of the test compound.

[3] = test compound 1 μM, GABA 1 μM, holding potential −80 mV

Row | Structure (SMILES) | Ki [1] [nM] | activation at 1 µM [2, 3] [%] | activation at 1 µM [2] [%]
1 | Cc1ccc(-n2nnc(C)c2COc2cc3c(cn2)CN(C2CCOC2)CC3)cn1 (racemic) [Example 29, 6-{[4-methyl-1-(6-methylpyridin-3-yl)-1H-1,2,3-triazol-5-yl]methoxy}-2-(oxolan-3-yl)-1,2,3,4-tetrahydro-2,7-naphthyridine] | 29.7 | 102 | 
2 | Cc1ccc(-n2nnc(C)c2COc2cc3c(cn2)CN([C@@H]2CCOC2)CC3)cn1 (single isomer, unassigned) [Example 38, 6-{[4-methyl-1-(6-methylpyridin-3-yl)-1H-1,2,3-triazol-5-yl]methoxy}-2-[(3S)-oxolan-3-yl]-1,2,3,4-tetrahydro-2,7-naphthyridine or enantiomer, tartarate salt] | 20.9 |  | 
3 | Cc1ccc(-n2nnc(C)c2COc2cc3c(cn2)CN([C@H]2CCOC2)CC3)cn1 (single isomer, unassigned) [Example 39, 6-{[4-methyl-1-(6-methylpyridin-3-yl)-1H-1,2,3-triazol-5-yl]methoxy}-2-[(3R)-oxolan-3-yl]-1,2,3,4-tetrahydro-2,7-naphthyridine or enantiomer, tartarate salt] | 21.4 |  | 
4 | Cc1ccc(-c2noc(C)c2COc2cc3c(cn2)CNCC3)cn1 [Example 1, 6-{[5-methyl-3-(6-methylpyridin-3-yl)-1,2-oxazol-4-yl]methoxy}-1,2,3,4-tetrahydro-2,7-naphthyridine trifluoroacetic acid salt] | 3.9 |  | 155
5 | Cc1onc(-c2ccc(C(F)(F)F)nc2)c1COc1cc2c(cn1)CNCC2 [Example 2, 6-({5-methyl-3-[6-(trifluoromethyl)pyridin-3-yl]-1,2-oxazol-4-yl}methoxy)-1,2,3,4-tetrahydro-2,7-naphthyridine trifluoroacetic acid salt] | 37 |  | 100
6 | Cc1ccc(-c2noc(C)c2COc2cc3c(cn2)CN(C)CC3)cn1 [Example 3, 2-methyl-6-{[5-methyl-3-(6-methylpyridin-3-yl)-1,2-oxazol-4-yl]methoxy}-1,2,3,4-tetrahydro-2,7-naphthyridine] | 4.2 |  | 
7 | Cc1ccc(-c2noc(C)c2COc2cc3c(cn2)CN(CC2CCC2)CC3)cn1 [Example 5, 2-(cyclobutylmethyl)-6-{[5-methyl-3-(6-methylpyridin-3-yl)-1,2-oxazol-4-yl]methoxy}-1,2,3,4-tetrahydro-2,7-naphthyridine] | 7.4 |  | 
8 | Cc1ccc(-c2noc(C)c2COc2cc3c(cn2)CN(C2CCCC2)CC3)cn1 [Example 6, 2-cyclopentyl-6-{[5-methyl-3-(6-methylpyridin-3-yl)-1,2-oxazol-4-yl]methoxy}-1,2,3,4-tetrahydro-2,7-naphthyridine] | 8.4 |  | 
9 | Cc1onc(-c2ccc(C(F)(F)F)nc2)c1COc1cc2c(cn1)CN(C1CCOCC1)CC2 [Example 7, 6-({5-methyl-3-[6-(trifluoromethyl)pyridin-3-yl]-1,2-oxazol-4-yl}methoxy)-2-(oxan-4-yl)-1,2,3,4-tetrahydro-2,7-naphthyridine] | 29.3 | 125 | 
10 | Cc1onc(-c2ccc(C(F)(F)F)nc2)c1COc1cc2c(cn1)CN(C1CCOC1)CC2 (stereo not drawn) [Example 8, 6-({5-methyl-3-[6-(trifluoromethyl)pyridin-3-yl]-1,2-oxazol-4-yl}methoxy)-2-(oxolan-3-yl)-1,2,3,4-tetrahydro-2,7-naphthyridine] | 11.2 | 133 | 
11 | Cc1ccc(-c2noc(C)c2COc2cc3c(cn2)CN(C2CCOC2)CC3)cn1 (stereo not drawn) [Example 9, 6-{[5-methyl-3-(6-methylpyridin-3-yl)-1,2-oxazol-4-yl]methoxy}-2-(oxolan-3-yl)-1,2,3,4-tetrahydro-2,7-naphthyridine] | 4.9 | 106 | 
12 | Cc1ccc(-c2noc(C)c2COc2cc3c(cn2)CN(C2COC2)CC3)cn1 [Example 10, 6-{[5-methyl-3-(6-methylpyridin-3-yl)-1,2-oxazol-4-yl]methoxy}-2-(oxetan-3-yl)-1,2,3,4-tetrahydro-2,7-naphthyridine] | 4.5 | 131 | 
13 | Cc1onc(-c2ccc(C(F)(F)F)nc2)c1COc1cc2c(cn1)CN(C(C)CS(C)(=O)=O)CC2 (stereo not drawn) [Example 12, 2-(1-methanesulfonylpropan-2-yl)-6-({5-methyl-3-[6-(trifluoromethyl)pyridin-3-yl]-1,2-oxazol-4-yl}methoxy)-1,2,3,4-tetrahydro-2,7-naphthyridine] | 28.2 |  | 
14 | Cc1onc(-c2ccc(C(F)(F)F)nc2)c1COc1cc2c(nn1)CN(C)CC2 [Example 17] | 17.6 |  | 
15 | Cc1nnn(-c2ccc(C(F)F)nc2)c1COc1cc2c(cn1)CNCC2 [Example 23, 6-({1-[6-(difluoromethyl)pyridin-3-yl]-4-methyl-1H-1,2,3-triazol-5-yl}methoxy)-1,2,3,4-tetrahydro-2,7-naphthyridine] | 7.3 |  | 
16 | Cc1nnn(-c2ccc(C(F)(F)F)nc2)c1COc1cc2c(cn1)CN(C(C)C)CC2 [Example 26, 6-({4-methyl-1-[6-(trifluoromethyl)pyridin-3-yl]-1H-1,2,3-triazol-5-yl}methoxy)-2-(propan-2-yl)-1,2,3,4-tetrahydro-2,7-naphthyridine] | 93.8 |  | 
17 | Cc1nnn(-c2ccc(C(F)(F)F)nc2)c1COc1cc2c(cn1)CN(C)CC2 [Example 27, 2-methyl-6-({4-methyl-1-[6-(trifluoromethyl)pyridin-3-yl]-1H-1,2,3-triazol-5-yl}methoxy)-1,2,3,4-tetrahydro-2,7-naphthyridine] | 63.2 |  | 
18 | Cc1nnn(-c2ccc(C(F)F)nc2)c1COc1cc2c(cn1)CN(C(C)C)CC2 [Example 28, 6-({1-[6-(difluoromethyl)pyridin-3-yl]-4-methyl-1H-1,2,3-triazol-5-yl}methoxy)-2-(propan-2-yl)-1,2,3,4-tetrahydro-2,7-naphthyridine] | 5.9 |  | 
19 | Cc1nnn(-c2ccc(C(F)(F)F)nc2)c1COc1cc2c(cn1)CN(C1CCOCC1)CC2 [Example 35, 6-({4-methyl-1-[6-(trifluoromethyl)pyridin-3-yl]-1H-1,2,3-triazol-5-yl}methoxy)-2-(oxan-4-yl)-1,2,3,4-tetrahydro-2,7-naphthyridine] | 88.8 |  | 
20 | Cc1nnn(-c2ccc(C(F)(F)F)nc2)c1COc1cc2c(cn1)CN(c1cccnc1)CC2 [Example 37, 6-({4-methyl-1-[6-(trifluoromethyl)pyridin-3-yl]-1H-1,2,3-triazol-5-yl}methoxy)-2-(pyridin-3-yl)-1,2,3,4-tetrahydro-2,7-naphthyridine napadysilate salt] |  | 53 | 
21 | COc1ccc(-n2nnc(C)c2COc2cc3c(cn2)CN(C2CCOCC2)CC3)cn1 [Example 40, 6-{[1-(6-methoxypyridin-3-yl)-4-methyl-1H-1,2,3-triazol-5-yl]methoxy}-2-(oxan-4-yl)-1,2,3,4-tetrahydro-2,7-naphthyridine heminapadisylate salt] |  | 86 | 
22 | Cc1ccc(-n2nnc(C)c2COc2cc3c(cn2)CN(C2(C(C)C)COC2)CC3)cn1 [Example 42, 6-{[4-methyl-1-(6-methylpyridin-3-yl)-1H-1,2,3-triazol-5-yl]methoxyl}-2-[3-(propan-2-yl)oxetan-3-yl]-1,2,3,4-tetrahydro-2,7-naphthyridine napadisylate salt] |  | 99 | 
23 | CCC1(N2CCc3cc(OCc4c(C)nnn4-c4ccc(C)nc4)ncc3C2)COC1 [Example 43, 2-(3-ethyloxetan-3-yl)-6-{[4-methyl-1-(6-methylpyridin-3-yl)-1H-1,2,3-triazol-5-yl]methoxy}-1,2,3,4-tetrahydro-2,7-naphthyridine napadisylate salt] |  | 85 | 
